Common to all, as to format: in vivo, C57BL/6 mice
The test system of data set [1] is chicken Ovalbumin (pOVA). The experiment in a line: Anti-OVA antibody response, MTX given with pOVA (Example 17). The following applies: 200 μg MTX i.p. days 1-3, 7-9, 14-16; 5 weekly i.v. injections of 25 μg pOVA; FIG. 2. How it is done:
(§1) C57BL/6 age-matched (5-6 weeks) female mice were injected 5 times intravenously in the tail vein with weekly injections of 25 μg of an immunogenic, particulate form of chicken Ovalbumin (pOVA). One group of animals received 3 intraperitoneal injections of 200 μg of MTX along with the 3 first antigen injections the same day and the 2 following days. The untreated group received only antigen whereas the treated group received 9 injections total of MTX i.p. (days 1-3, 7-9, 14-16). On the 4th and 5th injection days all animals received 20 μg of keyhole limpet hemocyanine (KLH) subcutaneously in the hind limbs admixed to 2 μg of CpG in addition to the i.v. injection of pOVA.
(§2) The anti-KLH and anti-OVA antibody responses were monitored in the blood in these animals at different time points.

Data set [2] has as its system keyhole limpet hemocyanine (KLH). Description: Anti-KLH antibody response, KLH+CpG given after MTX treatment (Example 17). The following applies: 20 μg KLH + 2 μg CpG s.c. injected after the MTX treatments (from d21); FIG. 2. How it is done: as §1, §2
Data set [3] has as its system keyhole limpet hemocyanin (KLH). Description: Anti-KLH IgG titers, MTX given with KLH i.v. (Example 18). The conditions noted are these: MTX i.p. days 1-3, 7-9, 14-16; 200 μg KLH i.v. weekly, 5 injections; FIG. 3. How it is done:
(§3) In order to test whether multiple injections of MTX can lead to the establishment of immunological tolerance, C57BL/6 age-matched (5-6 weeks) female mice were injected intravenously in the tail vein with weekly injections of 200 μg of keyhole limpet hemocyanin (KLH) and subcutaneously in the hind limbs with 25 μg of a particulate form of chicken Ovalbumin (pOVA) admixed to 2 μg of CpG oligodeoxynucleotides (ODN). With the first three antigen injections, a group of animals received 3 intraperitoneal injections of MTX on the same day and the following 2 days. All animals received 5 injections of antigen (d0, 7, 14, 21 and 28) and one group received 9 additional injections of MTX i.p. (days 1-3, 7-9, 14-16).
(§4) The anti-KLH and anti-OVA responses were monitored in the blood in these animals at different time points.

Data set [4] deals with chicken Ovalbumin (pOVA). Description: Anti-OVA IgG titers, MTX given with pOVA+CpG s.c. (Example 18). The conditions noted are these: MTX i.p. days 1-3, 7-9, 14-16; 25 μg pOVA + 2 μg CpG s.c. weekly, 5 injections; FIG. 3. How it is done:
as §3, §4

On to `CN(Cc1cnc2nc(N)nc(N)c2n1)c1ccc(C(=O)N[C@@H](CCC(=O)O)C(=O)O)cc1` [MTX, Methotrexate], for which the anti-OVA antibody response result with chicken Ovalbumin (pOVA) [1] was “blocked the antibody response and only minimal titers were detected”. Moreover, the anti-KLH response entry in data set [2] was “robust anti-KLH response could be detected in all groups”. Further, the “anti-KLH IgG antibody titers” value in data set [3] is “blocked both responses and the animals showed low titers”. Further, the “anti-OVA IgG antibody titers” value with chicken Ovalbumin (pOVA) [4] is “blocked both responses and the animals showed low titers”.

Source of the values: US20140356361A1, “REPEATED ADMINISTRATION OF NON-IMMUNOSUPPRESSIVE ANTIGEN SPECIFIC IMMUNOTHERAPEUTICS” (Selecta Biosciences, Inc., priority 2013, published 2014).
